Patent EP4782449A1, “TRICYCLIC PYRIDINE COMPOUND ACTING AS SARM1 ENZYME ACTIVITY INHIBITOR, AND USE THEREOF” (Artivila (ShenZhen) Innovation Center, Ltd., priority 2023, dated 2025)
Where two headings read alike, the source gives them in different places.

What was measured:
SARM1 = biological target: T1, SARM1 (Homo sapiens, UniProt Q6SZW1); assay: In vitro biochemical assay for inhibiting SARM1 enzyme activity (PC6 fluorescence, NADase); details: full-length SARM1 from transfected HEK293 cells, 50 µM NAD, 50 µM PC6, 50 µM NMN activator, room temperature, 30 minutes
T1 construct: inventors produced full-length SARM1 for NAD enzyme activity experiments, and used it for screening; His (C); made in house; host or cells: HEK293 cells, transient transfection; supernatant of digitonin lysate, no further purification described
T1 sequence (Q6SZW1 28-724): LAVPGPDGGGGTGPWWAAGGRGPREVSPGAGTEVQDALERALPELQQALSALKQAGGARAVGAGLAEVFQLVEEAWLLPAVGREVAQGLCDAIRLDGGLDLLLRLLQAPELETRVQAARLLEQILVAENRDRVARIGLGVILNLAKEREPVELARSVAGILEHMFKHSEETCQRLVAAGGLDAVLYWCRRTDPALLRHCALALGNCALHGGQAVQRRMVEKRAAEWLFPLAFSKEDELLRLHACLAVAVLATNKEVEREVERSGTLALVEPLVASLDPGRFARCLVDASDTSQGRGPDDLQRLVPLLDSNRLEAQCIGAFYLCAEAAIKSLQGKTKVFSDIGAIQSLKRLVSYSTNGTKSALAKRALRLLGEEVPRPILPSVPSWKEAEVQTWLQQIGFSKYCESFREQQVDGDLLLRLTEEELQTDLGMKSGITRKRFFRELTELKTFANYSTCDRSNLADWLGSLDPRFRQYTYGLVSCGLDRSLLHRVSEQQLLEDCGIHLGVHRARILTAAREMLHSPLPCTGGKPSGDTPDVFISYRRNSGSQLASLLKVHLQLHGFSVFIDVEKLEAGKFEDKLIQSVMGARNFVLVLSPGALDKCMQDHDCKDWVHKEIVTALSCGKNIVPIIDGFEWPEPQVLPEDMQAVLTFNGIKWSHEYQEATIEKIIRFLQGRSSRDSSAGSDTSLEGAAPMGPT
Method: The gene sequence of SARM1 protein was amplified using PCR, and the PCR amplification product was constructed into pcDNA3.1-HIS-C plasmid. The above construction was completed by YouBio(Hunan, China). HEK293 cells were cultured in 10 cm dishes using DMEM, and the cells were transfected with 15 μg pcDNA3.1-SARM[…]-C expression plasmid on the following day. Cells were collected 48 hours after transfection, and SARM1 protein expressed in the cells was obtained by digitonin lysis for in vitro activity assay experiments. The specific procedure was as follows: Cells were digested with trypsin-EDTA, then centrifuged at 1000 rpm for 5 minutes, washed once with PBS, and then resuspended in PBS containing 100 μM digitonin, with 0.6 mL PBS for the cells in per 10 cm dish, and lysed for 5 minutes. […] Then the supernatant containing SARM1 protein was collected by centrifugation at 5000 rpm for 10 minutes. […] A group without inhibitor was used as control group. All mixtures were incubated at room temperature for 10 minutes. Then, 50 μM NAD and 50 μM PC6 as substrates and 50 μM NMN as an activator were added to the SARM1 protein incubated with the inhibitor, and the reaction was carried out at room temperature for 30 minutes. The concentrations of each component were the final concentrations in the reaction system. […] Finally, the reaction rate was used to represent the protein activity and calculate the half-maximal inhibitory concentration.

[1] = tested on: dorsal root ganglion explants; assay: Axonal Wallerian degeneration assay in mouse DRG explant culture; assay type: cell-based, C57BL/6 male mice; details: 10 µM test compound, 2 hours pretreatment, axons transected, images at 0 hour and 24 hours
Text: The experimental method was based on Gerdts J et al. (Gerdts J, Sasaki Y, Vohra B, Marasa J, Milbrandt J. Image-based screening identifies novel roles for IkappaB kinase and glycogen synthase kinase 3 in axonal degeneration. J Biol Chem. 2011 Aug 12;286(32):28011-8).
Dorsal root ganglia were dissected from 2-month-old C57BL/6 male mice and placed in 35 mm culture dishes containing pre-cooled HBSS buffer. Excess tissue from each dorsal root ganglion was removed and cut into 2-3 explants using a scalpel, and the explants were planted in wells of a 96-well plate coated with 100 ng/mL Matrigel (Corning). 100 µL of DRG culture medium (Neurobasal medium (Gibco) containing 2% B-27 (Gibco), 1% GlutaMax (Gibco), and 10 ng/mL NGF (MCE)) was added, then cultured in a 37°C incubator for one week, with medium change on day 4, and experiments were performed on day 8.
0.1 µL of 10 mM test compound was dissolved in 100 µL DRG culture medium to prepare new culture medium containing 10 µM test compound. The culture medium in the 96-well plate was aspirated and new culture medium containing the test compound was added. Then the dorsal root ganglion explants were incubated with the medium in a 37°C incubator for 2 hours for pre-protection. After 2-hour pretreatment, a glass electrode was used to transect axons in the area near the tissue block, and bright-field images of axons in the same area were captured at 0 hour and 24 hours post axonal degeneration using a 20x objective lens of a microscope (Olympus). Axonal integrity was evaluated using an in-house developed script.

Row | IC50 (SARM1; read-out: IC50) [nM] | SMILES | Degree of Protection Against Axonal Wallerian Degeneration [1] | IC50 (SARM1) [nM]
1 | < 100 | O=C(CCc1cc(F)cc(F)c1)Nc1cnc2c(c1)COc1cnccc1-2 [Compound 96] | A (substantial protection (A) >50%) | 
2 | < 100 | O=C(CCc1ccc(F)cc1)Nc1cnc2c(c1)COc1cnccc1-2 [Compound 91, 3-(4-fluorophenyl)-N-(5H-pyrano[4,5-b:2,3-c']dipyridin-3-yl)propanamide] | A (substantial protection (A) >50%) | 
3 | < 100 | Cc1cncc2c1-c1ccc(NC(=O)CCc3ccc(F)cc3)cc1CO2 [Compound 130, 3-(4-fluorophenyl)-N-(1-methyl-6H-isochromeno[3,4-c]pyridin-8-yl)propanamide] | B (partial protection (B): 20% to 50%) | 
4 | 100 to 1000 | O=C(NCc1ccc(Cl)cc1)Nc1ccc2c(c1)COc1cnccc1-2 [Compound 63] | A (substantial protection (A) >50%) | 
5 | < 100 | O=C1C(Cc2ccc(F)cc2)CCN1c1ccc2c(c1)COc1cnccc1-2 (stereo not drawn) [Compound 10, 3-(4-fluorobenzyl)-1-(6H-isochromeno[3,4-c]pyridin-8-yl)pyrrolidin-2-one] | A (substantial protection (A) >50%) | 
6 | 100 to 1000 | O=C1C(Cc2ccc(Cl)nc2)CCN1c1ccc2c(c1)COc1cnccc1-2 (stereo not drawn) [Compound 17] | B (partial protection (B): 20% to 50%) | 
7 | < 100 | [2H]C1Oc2cnccc2-c2ccc(N3CCC(Cc4ccc(F)cc4)C3=O)cc21 (stereo not drawn) [Compound 145, 3-(4-fluorobenzyl)-1-(6H-isochromeno[3,4-c]pyridin-8-yl-6-d)pyrrolidin-2-one] | A (substantial protection (A) >50%) | 
8 | < 100 | O=C(NCc1ccc(F)cc1)Nc1cnc2c(c1)COc1cnccc1-2 [Compound 101, 1-(4-fluorobenzyl)-3-(5H-pyrano[4,5-b:2,3-c']dipyridin-3-yl)urea] | A (substantial protection (A) >50%) | 
9 | 1000 to 10000 | N#Cc1ccc(CNC(=O)Nc2ccc3c(c2)COc2cnccc2-3)cc1 [Compound 70] | B (partial protection (B): 20% to 50%) | 
10 | 100 to 1000 | O=C(Nc1ccc2c(c1)COc1cnccc1-2)OCc1ccc(F)cc1 [Compound 135] | A (substantial protection (A) >50%) | 

Continued, compound first:

Row | SMILES | IC50 (SARM1; read-out: IC50) [nM] | Degree of Protection Against Axonal Wallerian Degeneration [1] | IC50 (SARM1) [nM]
11 | O=C(NCc1ccc(F)c(F)c1)Nc1ccc2c(c1)COc1cnccc1-2 [Compound 46] | 100 to 1000 | A (substantial protection (A) >50%) | 
12 | O=C(NCc1ccc(Cl)c(Cl)c1)Nc1ccc2c(c1)COc1cnccc1-2 [Compound 65] | 1000 to 10000 | B (partial protection (B): 20% to 50%) | 
13 | O=C(CNc1ccc(F)cc1)Nc1ccc2c(c1)COc1cnccc1-2 [Compound 75] | < 100 | B (partial protection (B): 20% to 50%) | 
14 | O=C(CCc1ccc(F)cc1)Nc1ccc2c(c1)COc1cncc(Cl)c1-2 [Compound 140] | 100 to 1000 | B (partial protection (B): 20% to 50%) | 
15 | [2H]C1(Cc2ccc(F)cc2)CCN(c2ccc3c(c2)COc2cnccc2-3)C1=O (stereo not drawn) [Compound 139, 3-(4-fluorobenzyl)-1-(6H-isochromeno[3,4-c]pyridin-8-yl)pyrrolidin-2-one-3d] | < 100 | A (substantial protection (A) >50%) | 
16 | O=C(NCc1ccccc1)Nc1ccc2c(c1)COc1cnccc1-2 [Compound 71] | 1000 to 10000 | B (partial protection (B): 20% to 50%) | 
17 | Cc1ccc(CCC(=O)Nc2ccc3c(c2)COc2cnccc2-3)cc1 [Compound 41] | 100 to 1000 | A (substantial protection (A) >50%) | 
18 | CN1Cc2cnccc2-c2ccc(NC(=O)CCc3ccc(F)cc3)cc2C1 [Compound 134] | 100 to 1000 | B (partial protection (B): 20% to 50%) | 
19 | O=C(CCc1cccc(F)c1)Nc1cnc2c(c1)COc1cnccc1-2 [Compound 94] | < 100 | A (substantial protection (A) >50%) | 
20 | O=C(CCc1ccc(F)c(F)c1)Nc1cnc2c(c1)COc1cnccc1-2 [Compound 87] | < 100 | A (substantial protection (A) >50%) | 
21 | O=C(CCc1ccc(F)cc1)Nc1cc2c(cn1)-c1ccncc1OC2 [Compound 112, 3-(4-fluorophenyl)-N-(5H-pyrano[2,3-c:4,5-c']dipyridin-3-yl)propanamide] | < 100 | A (substantial protection (A) >50%) | 
22 | O=C1C(Cc2ccc(Cl)cc2)CCN1c1ccc2c(c1)COc1cnccc1-2 (stereo not drawn) [Compound 1, 3-(4-chlorobenzyl)-1-(6H-isochromeno[3,4-c]pyridin-8-yl)pyrrolidin-2-one] | < 100 | A (substantial protection (A) >50%) | 
23 | O=C(CCc1ccc(Cl)s1)Nc1ccc2c(c1)COc1cnccc1-2 [Compound 36] | 1000 to 10000 | A (substantial protection (A) >50%) | 
24 | O=C1C(Cc2cc(F)c(F)c(F)c2)CCN1c1ccc2c(c1)COc1cnccc1-2 (stereo not drawn) [Compound 5] | 1000 to 10000 | A (substantial protection (A) >50%) | 
25 | N#Cc1ccc(CCC(=O)Nc2ccc3c(c2)COc2cnccc2-3)cc1 [Compound 33] | < 100 | A (substantial protection (A) >50%) | 
26 | O=C(NCc1ccc(Cl)c(F)c1)Nc1ccc2c(c1)COc1cnccc1-2 [Compound 68] | 100 to 1000 | A (substantial protection (A) >50%) | 
27 | O=C(CCc1ccc(Cl)cc1F)Nc1ccc2c(c1)COc1cnccc1-2 [Compound 40] | 1000 to 10000 | A (substantial protection (A) >50%) | 
28 | O=C1C(Cc2cc3ccccc3o2)CCN1c1ccc2c(c1)COc1cnccc1-2 (stereo not drawn) [Compound 59] | 1000 to 10000 | B (partial protection (B): 20% to 50%) | 
29 | Fc1ccc(CNC(=S)Nc2ccc3c(c2)COc2cnccc2-3)cc1 [Compound 77, 1-(4-fluorobenzyl)-3-(6H-isochromeno[3,4-c]pyridin-8-yl)thiourea] |  | B (partial protection (B): 20% to 50%) | < 100
30 | O=C(NCc1cc(F)c(F)c(F)c1)Nc1ccc2c(c1)COc1cnccc1-2 [Compound 67] | < 100 | A (substantial protection (A) >50%) | 
